Reference: article PMC12542638, “Cystathionine β-synthase TtCbs1 from Tetrahymena thermophila catalyzes the synthesis of CdS quantum dots for methyl orange decolorization” (Applied and Environmental Microbiology, 2025)

Biological target: T1, His-TtCbs1 (TtCbs1, cystathionine β-synthase) (Tetrahymena thermophila, UniProt I7M350)
T1 construct: gene TTHERM_00558300
T1 sequence (I7M350 1-500): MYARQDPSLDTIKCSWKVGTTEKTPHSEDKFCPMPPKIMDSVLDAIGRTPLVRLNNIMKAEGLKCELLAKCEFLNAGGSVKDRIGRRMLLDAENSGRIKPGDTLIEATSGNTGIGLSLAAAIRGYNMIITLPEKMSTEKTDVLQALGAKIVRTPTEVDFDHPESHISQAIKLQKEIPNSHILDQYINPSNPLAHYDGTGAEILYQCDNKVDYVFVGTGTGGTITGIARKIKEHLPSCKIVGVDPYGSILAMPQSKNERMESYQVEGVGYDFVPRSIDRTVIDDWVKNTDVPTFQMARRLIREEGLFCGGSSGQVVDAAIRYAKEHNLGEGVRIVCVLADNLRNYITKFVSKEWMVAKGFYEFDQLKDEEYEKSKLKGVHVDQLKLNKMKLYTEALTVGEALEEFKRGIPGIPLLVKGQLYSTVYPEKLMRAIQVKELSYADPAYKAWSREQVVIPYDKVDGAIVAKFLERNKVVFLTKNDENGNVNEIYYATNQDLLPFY
Experiment: CdS quantum dot formation from enzymatically released H2S, UV-Vis and fluorescence
Type: biochemical
Settings: 50 mM Tris-HCl pH 8.5, 37 °C, 0.1 mg/mL enzyme, 4 mM cysteine, 0.5 mM CdCl2; no signal without enzyme

**Q.** With N[C@@H](CS)C(=O)O [L-cysteine] as the compound, how does the “CdS quantum dot formation from enzymatically released H2S, UV-Vis and fluorescen” value read?
**A.** Cysteine, as a thiol compound, serves as a substrate for His-TtCbs1 to produce H2S
